Experimental data published in a melting point compilation (Tetko et al.; mined from patent text by program, amines drawn as free bases though some values may be those of a salt).

Molecule COc1ccc(NC(=O)OC(C)(C)C)c(C)c1 has a melting point of 80 to 82 °C.
Cc1c(F)cc(C(=O)NCC2CC2)cc1-c1ccc(C(=O)NCC(C)(C)C)cc1C(=O)Nc1nccs1 showed a melting point of 179 to 183 °C.
In the case of CSCCNC(=O)c1cccc(-c2cccc3cc(Cc4cccc(C(F)(F)F)c4)oc23)c1, the melting point is reported as 135 to 138 °C.
Molecule CCC1c2c(ncn2CC)CCN1C(=S)NC(C)C (configuration not stated) has a melting point of 195 °C.
O=C1C2CCCC2=Nc2ccccc2N1Cc1cccc(OCc2ccccc2)c1 (configuration not stated) showed a melting point of 120 to 122 °C.
In the case of Cc1cccc(CC(=O)Nc2cc(Cl)c(Cl)cc2[N+](=O)[O-])c1, the melting point is reported as 122 to 124 °C.
Molecule OCc1ccc(-c2ccccc2-c2nnnn2C(c2ccccc2)(c2ccccc2)c2ccccc2)cc1 has a melting point of 167 °C.
Work on N#Cc1ccc(N(Cc2ccc(Br)cc2)n2cnnc2)cc1-c1ccc(OS(N)(=O)=O)cc1 yielded a melting point of 122 to 123 °C.
Work on Cc1ccc(S(=O)(=O)N2c3ccccc3C(c3ccccc3)(c3ccccc3)C2NC(=O)Nc2ccc(F)cc2F)cc1 (configuration not stated) yielded a melting point of 244 to 246 °C.
In the case of COc1ccc2nc(NC(=O)COC(=O)c3ccccc3)sc2c1, the melting point is reported as 203 to 204 °C.
O=S(=O)(CCc1ccc(O)cc1)CC1CCC1 showed a melting point of 112 °C.
In the case of Cc1ccc(CCCO)c(NCc2ccc3nc(NCCCN4CCOCC4)n(Cc4cccc5c4ncn5C)c3c2)c1, the melting point is reported as 198 °C.
Work on O=C(O)[C@@H]1C[C@@H](SC(c2ccccc2)(c2ccccc2)c2ccccc2)CN1S(=O)(=O)c1ccc2ccccc2c1 yielded a melting point of 64 to 69 °C.
Work on CCOCc1nc2c(N)nc3ccc(OCc4ccccc4)cc3c2n1CC(C)C yielded a melting point of 183 to 184 °C.
CCCC(=O)OCC1OC(n2cnc3c(OC)nc(N)nc32)C(O)C1O (configuration not stated) gave a melting point of 105 °C.
COc1ccc(CCc2oc3cccc(O)c3c2C)cc1 gave a melting point of 72 to 75 °C.
Molecule Cc1cc(CCCOc2c(C)cc(-c3noc(C(N)=O)n3)cc2C)on1 has a melting point of 177 to 178 °C.
In the case of Cn1c(C(F)(F)F)ccc(-c2cc([N+](=O)[O-])c(F)cc2F)c1=O, the melting point is reported as 115 to 118 °C.
For Cc1nnc(Cl)c2cc(O)ccc12, the melting point was > 260 °C.
For COc1ccc(OC)c(S(=O)(=O)Nc2onc(C)c2Br)c1, the melting point was 118 to 120 °C.
CC(CS)C(=O)N1CC(Oc2ccc(CC3Nc4cc(Cl)c(S(N)(=O)=O)cc4S(=O)(=O)N3C)cc2)CC1C(=O)O (configuration not stated) showed a melting point of 192 to 197 °C.
In the case of CCCCCCCCCCCCN1C(C)(C)CC(O)CC1(C)C, the melting point is reported as 41 to 42 °C.
In the case of COC(=O)N=CNNc1cc(SCC(C)C)ccc1NC(C)=O, the melting point is reported as 180 to 184 °C.
In the case of COC(=O)CCc1ccc(Sc2ccccc2C(=O)O)c([N+](=O)[O-])c1, the melting point is reported as 160 to 161 °C.
For COc1ccc(OCCCCBr)c(C2Sc3cc(Cl)ccc3N(C)C2=O)c1 (configuration not stated), the melting point was 106 to 107 °C.
With OCCCN1CCN(c2ccccc2)CC1 the melting point was 72 to 73 °C.
In the case of CCCCCCCCc1c(CCCCCCCC)c(-c2ccccc2)n(-c2ccc(C)cc2)c1-c1ccccc1, the melting point is reported as 100 to 101 °C.
CCOP(=O)(CCc1cn(-c2ccccc2)nc1O)OCC showed a melting point of 121 to 122 °C.
In the case of CSC1CCN(C(=O)CCSC(C)=O)C1C(=O)O (configuration not stated), the melting point is reported as 153 to 157 °C.
In the case of COC(=O)c1cccc2nc(OCC(F)(F)F)n(Cc3ccc(-c4ccccc4-c4nnn[nH]4)cc3)c12, the melting point is reported as 210 to 212 °C.
For Cc1cccc(-c2[nH]nnc2-c2ccc3c(c2)N(CCN2CCOCC2)C(=O)CO3)n1, the melting point was 150 °C.
O=C(c1ccc(F)cc1)N1CCC[C@H](c2noc(-c3ccc(F)cc3)n2)C1 gave a melting point of 120 to 123 °C.
For CS(=O)(=O)Nc1cc(C(O)CNC2CCN(c3ccc(C=C4SC(=O)NC4=O)cc3Br)CC2)ccc1O (configuration not stated), the melting point was > 200 °C.
CC(C)(O)Cc1nc2cnc3ccccc3c2s1 gave a melting point of 155 to 157 °C.
Work on Cc1nn(-c2cccnc2)c(-c2cccc(Cl)c2)c1CC(=O)O yielded a melting point of 163 °C.
Cc1ccc([C@@H]2CO[C@@H](c3ccc(C)cc3)CO2)cc1 gave a melting point of 200 °C.
Work on CCOC(CC(=O)Nc1cc(CCNC(=O)C(F)(F)F)ccc1OC)OCC yielded a melting point of 79 to 80 °C.
